According to ChEMBL document CHEMBL6153135, “Rational Design of a Potent, Selective, and Metabolically Stable CDK9 Inhibitor to Counteract Osimertinib Resistance through Mcl-1 Suppression and Enhanced BRD4 Co-Targeting” (J Med Chem, 2025):
pIC50: −log10 of the molar value. Active and inactive are the calls of the source. No cut-off for these calls is given here.

What was measured:
[1] = tested on: Lung adenocarcinoma organoid; assay: Anti-tumor activity against Almonertinib-resistant patient (#2566)-derived human Lung adenocarcinoma organoid assessed as inhibition of cell viability measured after 96 hrs; type: functional, tissue-based; conditions: Neoplasm
[2] = AUC (0 to infinity) in BALB/c mouse at 15 mg/kg, po; type: ADME, organism-based; conditions: in vivo
[3] = Anti-proliferative activity against human Osimertinib-resistant HCC827 cells assessed as cell inhibition measured after 72 hrs in presence of 100 nM JQ1 by MTT assay; type: functional, cell-based
[4] = Drug concentration in lung of BALB-c nude mouse xenografted with human NCI-H1975 cells at 15 mg/kg, iv measured after 30 mins by LC-MS/MS analysis; type: ADME, organism-based; conditions: read-out: Ct
[5] = Anti-proliferative activity against human Osimertinib-resistant HCC827 cells assessed as cell inhibition measured after 72 hrs in presence of 500 nM JQ1 by MTT assay; type: functional, cell-based
[6] = tested on: Lung adenocarcinoma organoid; assay: Anti-tumor activity against Osimertinib-resistant patient (#0243)-derived human Lung adenocarcinoma organoid assessed as inhibition of cell viability measured after 96 hrs; type: functional, tissue-based; conditions: Neoplasm
[7] = AUC (0 to t) in Sprague-Dawley rat at 20 mg/kg, po; type: ADME, organism-based; conditions: in vivo
[8] = molecular target: Homeodomain-interacting protein kinase 1 (Homo sapiens) (UniProt Q86Z02); assay: Inhibition of HIPK1 (unknown origin) at 100 nM preincubated for 10 mins followed by substrate/ATP measured after 60 mins by ADP-Glo assay relative to control; conditions: time 70.0 min
[9] = molecular target: CDK3/Cyclin E (Homo sapiens) (UniProt P24864+Q00526); assay: Inhibition of CDK3/Cyclin E1 (unknown origin) at 100 nM preincubated for 10 mins followed by substrate/ATP measured after 60 mins by ADP-Glo assay relative to control; type: protein-complex assay; conditions: time 70.0 min
NCI-H1975 [10] = assay: Antitumor activity against human NCI-H1975 cells xenografted in BALB-c nude mouse assessed as reduction in Ki-67 expression at 15 mg/kg, iv administered on every two days by IHC analysis; type: functional, organism-based
[11] = tested on: Lung adenocarcinoma organoid; assay: Anti-tumor activity against Osimertinib-resistant patient (#0085)-derived human Lung adenocarcinoma organoid assessed as inhibition of cell viability measured after 96 hrs relative to control; type: functional, Neoplasm
[12] = Clearance in BALB/c mouse at 2 mg/kg, iv; type: ADME, organism-based; conditions: in vivo
[13] = Toxicity in BALB-c nude mouse xenografted with human NCI-H1975 cells assessed as pathological damage in lung at 15 mg/kg, iv administered on every two days by H and E staining based analysis; type: organism-based; conditions: in vivo
[14] = tested on: Osimertinib-resistant HCC827 cell; assay: Antitumor activity against human Osimertinib-resistant HCC827 cells xenografted in BALB-c nude mouse assessed as tumor growth inhibition at 5 mg/kg, iv; type: functional, organism-based
[15] = Toxicity in BALB-c mouse xenografted with human Osimertinib-resistant HCC827 cells assessed as decrease in body weight at 5 mg/kg, iv; type: organism-based; conditions: in vivo
[16] = Toxicity in BALB-c nude mouse xenografted with human NCI-H1975 cells assessed as body weight loss at 15 mg/kg, iv administered on every two days; type: organism-based; conditions: in vivo
[17] = tested on: Lung adenocarcinoma organoid; assay: Anti-tumor activity against multidrug-resistant patient (#2663)-derived human Lung adenocarcinoma organoid assessed as inhibition of cell viability measured after 96 hrs; type: functional, tissue-based; conditions: Neoplasm
[18] = molecular target: CDK7/Cyclin H/MNAT1 (Homo sapiens) (UniProt P51946+P50613+P51948); assay: Inhibition of CDK7/Cyclin H/MAT1 (unknown origin) at 100 nM preincubated for 10 mins followed by substrate/ATP measured after 60 mins by ADP-Glo assay relative to control; type: protein-complex assay; conditions: time 70.0 min
[19] = molecular target: Homeodomain-interacting protein kinase 2 (Homo sapiens) (UniProt Q9H2X6); assay: Inhibition of HIPK2 (unknown origin) at 100 nM preincubated for 10 mins followed by substrate/ATP measured after 60 mins by ADP-Glo assay relative to control; conditions: time 70.0 min
NCI-H1975 [20] = assay: Anti-proliferative activity against human NCI-H1975 cells assessed as cell inhibition measured after 72 hrs in presence of 500 nM JQ1 by MTT assay; type: functional, cell-based; conditions: NCI-H1975, 72 h
Mus musculus = assay: In vivo downregulation of c-Myc level in tumor tissue of BALB-c nude mouse xenografted with human Osimertinib-resistant HCC827 cells at 5 mg/kg, iv in presence of JQ1 by Western blot analysis; type: functional, organism-based
[21] = Anti-proliferative activity against human Osimertinib-resistant HCC827 cells assessed as cell inhibition measured after 72 hrs in presence of 250 nM JQ1 by MTT assay; type: functional, cell-based
[22] = Metabolic stability in pig liver microsomes assessed as half life measured for 5 to 60 mins by LC-MS/MS analysis; type: ADME, Sus scrofa, Microsome; conditions: time 5-60 min
[23] = tested on: Osimertinib-resistant NCI-H1975 cell; assay: Anti-proliferative activity against human Osimertinib-resistant NCI-H1975 cells assessed as cell inhibition measured after 72 hrs in presence of 250 nM JQ1 by MTT assay; type: functional, cell-based
[24] = Half life in Sprague-Dawley rat at 20 mg/kg, po; type: ADME, organism-based; conditions: in vivo
HCC827 = assay: Anti-proliferative activity against human HCC827 cells assessed as cell inhibition measured after 72 hrs in presence of 100 nM JQ1 by MTT assay; type: functional, cell-based; conditions: HCC827, 72 h
[25] = tested on: Lung adenocarcinoma organoid; assay: Anti-tumor activity against patient (#2223)-derived human Lung adenocarcinoma organoid assessed as inhibition of cell viability measured after 96 hrs relative to control; type: functional, Neoplasm
[26] = molecular target: Cyclin-dependent kinase 9 (Homo sapiens) (UniProt P50750); assay: Inhibition of CDK9 in human Osimertinib-resistant NCI-H1975 cells assessed as decrease in p-RNAPII-ser2 level incubated for 12 hrs by Western blot analysis; type: cell-based; conditions: Osimertinib-resistant NCI-H1975 cell, dose 50-500 nM
[27] = Toxicity in BALB-c mouse xenografted with human NCI-H1975 cells assessed as decrease in body weight at 5 mg/kg, iv in presence of JQ1; type: organism-based; conditions: in vivo
[28] = Toxicity in BALB-c nude mouse xenografted with human NCI-H1975 cells assessed as pathological damage in liver at 15 mg/kg, iv administered on every two days by H and E staining based analysis; type: organism-based; conditions: in vivo
NCI-H1975 [29] = assay: Anti-proliferative activity against human NCI-H1975 cells assessed as cell inhibition measured after 72 hrs in presence of 100 nM JQ1 by MTT assay; type: functional, cell-based; conditions: NCI-H1975, 72 h
[30] = Half life in BALB/c mouse at 2 mg/kg, iv; type: ADME, organism-based; conditions: in vivo

Sequence of CDK3/Cyclin E (Homo sapiens) (P24864 whole entry, looked up): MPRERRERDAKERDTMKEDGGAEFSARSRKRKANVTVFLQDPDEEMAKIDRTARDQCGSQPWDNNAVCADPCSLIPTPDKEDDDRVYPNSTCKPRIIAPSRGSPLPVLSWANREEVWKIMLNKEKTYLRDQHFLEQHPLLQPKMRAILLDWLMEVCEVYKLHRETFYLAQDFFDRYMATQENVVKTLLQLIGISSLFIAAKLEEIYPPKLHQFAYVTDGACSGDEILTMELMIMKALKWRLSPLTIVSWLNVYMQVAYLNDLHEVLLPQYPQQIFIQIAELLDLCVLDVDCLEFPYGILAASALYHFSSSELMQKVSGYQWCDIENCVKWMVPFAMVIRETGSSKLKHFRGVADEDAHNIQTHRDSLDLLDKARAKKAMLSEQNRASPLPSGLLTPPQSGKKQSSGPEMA
Sequence of CDK3/Cyclin E (Homo sapiens) (Q00526 whole entry, looked up): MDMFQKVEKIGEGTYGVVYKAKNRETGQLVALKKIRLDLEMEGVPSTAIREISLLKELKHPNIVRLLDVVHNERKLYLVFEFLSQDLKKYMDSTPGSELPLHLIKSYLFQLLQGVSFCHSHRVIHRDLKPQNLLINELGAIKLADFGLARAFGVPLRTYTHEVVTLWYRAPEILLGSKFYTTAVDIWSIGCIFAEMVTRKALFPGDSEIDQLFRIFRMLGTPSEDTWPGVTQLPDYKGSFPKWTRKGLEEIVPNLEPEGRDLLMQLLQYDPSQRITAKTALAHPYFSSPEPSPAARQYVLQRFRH
Sequence of Cyclin-dependent kinase 9 (Homo sapiens) (P50750 whole entry): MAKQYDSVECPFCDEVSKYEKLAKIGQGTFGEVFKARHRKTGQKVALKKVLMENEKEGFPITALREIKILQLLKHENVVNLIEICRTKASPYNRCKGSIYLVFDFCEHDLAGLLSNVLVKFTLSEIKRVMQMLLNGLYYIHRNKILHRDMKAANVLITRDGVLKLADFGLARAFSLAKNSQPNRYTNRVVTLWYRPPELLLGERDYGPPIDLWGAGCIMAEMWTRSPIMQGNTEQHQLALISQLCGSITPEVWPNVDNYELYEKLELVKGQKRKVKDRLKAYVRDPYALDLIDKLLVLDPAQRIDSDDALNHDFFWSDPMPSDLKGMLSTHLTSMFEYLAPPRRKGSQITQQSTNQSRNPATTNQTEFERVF
Sequence of Homeodomain-interacting protein kinase 2 (Homo sapiens) (Q9H2X6 whole entry, looked up): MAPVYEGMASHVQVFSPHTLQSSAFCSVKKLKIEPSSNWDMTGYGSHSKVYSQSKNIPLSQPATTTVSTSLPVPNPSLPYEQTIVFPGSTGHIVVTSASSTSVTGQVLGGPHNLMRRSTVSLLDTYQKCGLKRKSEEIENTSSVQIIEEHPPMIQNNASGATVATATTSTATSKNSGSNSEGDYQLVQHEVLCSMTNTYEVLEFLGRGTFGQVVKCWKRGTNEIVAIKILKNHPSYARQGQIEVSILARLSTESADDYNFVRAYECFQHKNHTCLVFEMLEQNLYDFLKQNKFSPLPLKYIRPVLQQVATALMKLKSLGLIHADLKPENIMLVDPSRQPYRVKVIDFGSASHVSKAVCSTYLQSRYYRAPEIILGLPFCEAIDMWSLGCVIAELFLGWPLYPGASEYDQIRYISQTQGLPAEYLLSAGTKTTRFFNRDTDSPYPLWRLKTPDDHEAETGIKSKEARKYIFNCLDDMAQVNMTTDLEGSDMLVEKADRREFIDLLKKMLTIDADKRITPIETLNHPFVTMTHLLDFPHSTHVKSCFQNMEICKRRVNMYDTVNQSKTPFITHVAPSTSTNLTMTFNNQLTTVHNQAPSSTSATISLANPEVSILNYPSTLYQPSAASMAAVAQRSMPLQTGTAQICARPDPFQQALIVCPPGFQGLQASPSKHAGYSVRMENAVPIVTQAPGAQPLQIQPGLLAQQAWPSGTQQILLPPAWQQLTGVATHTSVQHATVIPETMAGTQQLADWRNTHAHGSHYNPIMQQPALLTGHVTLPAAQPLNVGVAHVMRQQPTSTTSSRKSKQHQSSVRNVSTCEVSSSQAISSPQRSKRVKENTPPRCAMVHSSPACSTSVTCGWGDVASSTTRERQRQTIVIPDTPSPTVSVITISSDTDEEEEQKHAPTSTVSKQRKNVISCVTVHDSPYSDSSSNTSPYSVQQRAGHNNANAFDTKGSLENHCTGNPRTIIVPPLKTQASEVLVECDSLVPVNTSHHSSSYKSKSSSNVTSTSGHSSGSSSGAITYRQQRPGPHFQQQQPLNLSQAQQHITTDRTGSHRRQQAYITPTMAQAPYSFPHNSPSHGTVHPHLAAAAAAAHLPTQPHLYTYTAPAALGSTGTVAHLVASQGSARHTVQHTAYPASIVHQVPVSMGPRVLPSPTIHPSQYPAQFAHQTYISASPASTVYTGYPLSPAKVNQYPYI
Sequence of Homeodomain-interacting protein kinase 1 (Homo sapiens) (Q86Z02 whole entry, looked up): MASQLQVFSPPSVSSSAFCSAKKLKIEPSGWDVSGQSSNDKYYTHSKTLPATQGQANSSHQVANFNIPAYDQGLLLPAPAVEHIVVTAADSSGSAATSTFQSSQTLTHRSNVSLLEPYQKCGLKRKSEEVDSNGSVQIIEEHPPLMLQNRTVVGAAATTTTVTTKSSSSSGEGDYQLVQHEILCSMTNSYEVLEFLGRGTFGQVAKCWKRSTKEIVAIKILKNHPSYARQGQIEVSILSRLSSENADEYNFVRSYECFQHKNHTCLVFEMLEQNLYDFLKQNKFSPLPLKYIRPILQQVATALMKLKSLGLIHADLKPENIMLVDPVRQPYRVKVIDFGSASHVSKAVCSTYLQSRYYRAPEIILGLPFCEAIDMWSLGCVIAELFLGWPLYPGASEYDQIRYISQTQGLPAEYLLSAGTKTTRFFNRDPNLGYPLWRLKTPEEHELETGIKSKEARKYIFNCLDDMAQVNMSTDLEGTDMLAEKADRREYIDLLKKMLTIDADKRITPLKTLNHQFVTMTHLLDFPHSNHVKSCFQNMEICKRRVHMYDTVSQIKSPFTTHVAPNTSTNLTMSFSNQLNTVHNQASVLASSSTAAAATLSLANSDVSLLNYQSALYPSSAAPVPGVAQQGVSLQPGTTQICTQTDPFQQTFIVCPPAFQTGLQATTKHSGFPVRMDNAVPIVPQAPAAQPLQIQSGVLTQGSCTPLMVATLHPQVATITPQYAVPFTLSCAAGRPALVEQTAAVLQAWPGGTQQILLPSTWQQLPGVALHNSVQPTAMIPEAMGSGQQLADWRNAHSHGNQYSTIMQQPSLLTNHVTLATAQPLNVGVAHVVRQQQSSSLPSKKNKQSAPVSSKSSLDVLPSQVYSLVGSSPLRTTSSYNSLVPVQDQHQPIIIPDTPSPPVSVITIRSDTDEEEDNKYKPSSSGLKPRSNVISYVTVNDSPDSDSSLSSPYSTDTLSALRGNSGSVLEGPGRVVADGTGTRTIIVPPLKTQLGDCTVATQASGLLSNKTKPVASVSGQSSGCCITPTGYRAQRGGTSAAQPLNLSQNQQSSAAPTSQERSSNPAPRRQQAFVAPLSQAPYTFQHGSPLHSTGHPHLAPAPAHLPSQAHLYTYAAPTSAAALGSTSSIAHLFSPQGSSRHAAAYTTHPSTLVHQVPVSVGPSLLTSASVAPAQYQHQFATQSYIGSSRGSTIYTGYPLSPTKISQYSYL

pIC50 [1]: 7.32 | AUC(0-inf) [2]: 766 ng·h/mL | concentration at 0.5 h [4]: 6650 ng/mL | pIC50 [6]: > 8.00 | AUC(0-t) [7]: 3610 ng·h/mL | inhibition [8]: 88.5% | inhibition [9]: 9.68% | clearance [12]: 83.3 mL/min/kg | pIC50 [17]: > 7.30 | inhibition [18]: 11.9% | inhibition [19]: 96% | pIC50 (NCI-H1975 [20]): 8.33 | half-life [22]: 0.655 h | pIC50 [23]: 7.84 | half-life [24]: 6.7 h | pIC50 (HCC827): 7.51 | inhibition [26]: Dose-dependent-effect | pIC50 (NCI-H1975 [29]): 6.88 | half-life [30]: 4.2 h
SMILES: CC(=O)N1CCC(NC(=O)c2ccc3cc2OCCCCCCOc2cc(ccc2F)-c2nc(ncc2F)N3)CC1
pIC50 [3]: 7.50 | pIC50 [5]: 8.28 | Activity (NCI-H1975 [10]): Active | Imax [11]: >98% | Activity [13]: Non-toxic | inhibition [14]: inactive | Activity [15]: Non-toxic | Activity [16]: Non-toxic | Activity (Mus musculus): Active | pIC50 [21]: 7.91 | Imax [25]: 99.9% | Activity [27]: Non-toxic | Activity [28]: Non-toxic
